According to US20120135923A1, “Use of Melanocortins to Treat Dyslipidemia” (IPSEN PHARMA, S.A.S., priority 2009, published 2012):
Read-outs that look alike come from different tables or passages of the source. Bridge positions count the residues as written; N and C are the ends. Square brackets hold non-standard residues; d marks the D form. Peptide text beside a SMILES is read from it. d2Nal = N[C@H](Cc1ccc2ccccc2c1)C(=O)O; Bta = N[C@@H](Cc1csc2ccccc12)C(=O)O; Pen = CC(C)(S)[C@H](N)C(=O)O; Nle = CCCC[C@H](N)C(=O)O; Ava = NCCCCC(=O)O; GABA = NCCCC(=O)O; βAla = NCCC(=O)O

Legend:
Experiment in all cases: cyclic AMP bioassay (ECL) in CHO-K1 cells
Type in all cases: cell-based
[1] = molecular target: T1, hMC5-R (Homo sapiens, UniProt P33032)
T1 construct: expressed in transfected cells; host or cells: CHO-K1
Procedure: (§1) Intracellular cyclic AMP (cAMP) levels were determined by an electrochemiluminescence (ECL) assay (Meso Scale Discovery®, Gaithersburg, Md.; referred to hereinafter as MSD). […] Transgenic CHO-K1 cells stably expressing hMC receptor subtypes 1, 3, 4 or 5 were dispensed at a density of approximately 7,000 cells/well in 384-well Multi-Array®plates (MSD) containing integrated carbon electrodes and coated with anti-cAMP antibody. Increasing concentrations of the test compounds were added and the cells were incubated for approximately 40 minutes at approximately 37° C. […] At the end of the second incubation period read buffer (Tris-buffered solution containing an ECL co-reactant and Triton X-100 at ph 7.8) was added and the cAMP levels in the cell lysates were immediately determined by ECL detection with a Sector Imager 6000 Reader® (MSD). Data were analyzed using a computer-assisted non-linear regression analysis (XL fit; IDBS) and reported as either an EC50 value or a Kb value.
(§2) The Kb value reflects the potency of an antagonist and is determined by Schild analysis. In brief, concentration-response curves of an agonist are carried out in the presence of increasing concentrations of an antagonist. […] It is calculated by extrapolating the line on a Schild plot to zero on the y-axis.

[2] = molecular target: T2, hMC3-R (Homo sapiens, UniProt P41968)
T2 construct: expressed in transfected cells; host or cells: CHO-K1
Procedure: as §1, §2

[3] = molecular target: T3, hMC1-R (Homo sapiens, UniProt Q01726)
T3 construct: expressed in transfected cells; host or cells: CHO-K1

[4] = molecular target: T4, hMC4-R (Homo sapiens, UniProt P32245)
T4 construct: expressed in transfected cells; host or cells: CHO-K1

[5] = Table 9A/9B, read-out: EC50 hMC5-R
[6] = Table 9A/9B, read-out: EC50 hMC3-R
[7] = Table 9A/9B, read-out: EC50 hMC1-R
[8] = Table 9A/9B, read-out: EC50 hMC4-R

T4 sequence (P32245 whole entry): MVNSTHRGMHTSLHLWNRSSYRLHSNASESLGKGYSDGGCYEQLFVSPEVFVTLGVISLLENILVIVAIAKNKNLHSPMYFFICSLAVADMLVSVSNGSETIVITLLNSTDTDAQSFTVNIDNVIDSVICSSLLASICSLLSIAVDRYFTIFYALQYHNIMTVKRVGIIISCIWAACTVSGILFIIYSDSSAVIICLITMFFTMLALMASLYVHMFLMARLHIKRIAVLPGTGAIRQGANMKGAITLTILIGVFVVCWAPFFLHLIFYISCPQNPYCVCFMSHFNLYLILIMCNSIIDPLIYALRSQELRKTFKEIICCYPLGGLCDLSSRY
T1 sequence (P33032 whole entry): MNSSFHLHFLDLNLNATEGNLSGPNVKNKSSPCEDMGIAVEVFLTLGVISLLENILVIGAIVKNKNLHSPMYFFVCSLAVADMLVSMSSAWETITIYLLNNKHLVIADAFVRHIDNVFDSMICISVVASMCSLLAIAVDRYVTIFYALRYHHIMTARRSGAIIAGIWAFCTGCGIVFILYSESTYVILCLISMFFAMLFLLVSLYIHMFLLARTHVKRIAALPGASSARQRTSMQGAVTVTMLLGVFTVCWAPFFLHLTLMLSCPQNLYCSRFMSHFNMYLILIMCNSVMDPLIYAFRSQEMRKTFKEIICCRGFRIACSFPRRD
T2 sequence (P41968 whole entry): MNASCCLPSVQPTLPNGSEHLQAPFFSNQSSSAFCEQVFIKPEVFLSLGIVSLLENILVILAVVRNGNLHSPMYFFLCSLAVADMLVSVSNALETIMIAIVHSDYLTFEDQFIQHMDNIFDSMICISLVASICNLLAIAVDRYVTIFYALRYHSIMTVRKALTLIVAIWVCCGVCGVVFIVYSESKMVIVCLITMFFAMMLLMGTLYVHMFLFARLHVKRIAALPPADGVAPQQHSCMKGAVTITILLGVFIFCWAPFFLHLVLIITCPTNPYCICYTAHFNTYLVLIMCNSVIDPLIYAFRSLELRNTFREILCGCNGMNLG
T3 sequence (Q01726 whole entry): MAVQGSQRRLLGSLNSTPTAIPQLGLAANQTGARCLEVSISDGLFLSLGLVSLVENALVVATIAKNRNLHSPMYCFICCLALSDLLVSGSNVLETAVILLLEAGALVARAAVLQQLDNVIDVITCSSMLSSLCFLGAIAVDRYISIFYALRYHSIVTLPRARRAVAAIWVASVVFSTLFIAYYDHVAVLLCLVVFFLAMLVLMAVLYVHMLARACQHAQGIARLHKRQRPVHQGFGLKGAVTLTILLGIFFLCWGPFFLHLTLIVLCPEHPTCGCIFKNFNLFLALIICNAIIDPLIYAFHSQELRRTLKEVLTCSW

SMILES	EC50 [1] [nM]	Kb [2] [nM]	EC50 [3] [nM]	Kb [4] [nM]	EC50 [1, 5] [nM]	EC50 [2, 6] [nM]	EC50 [3, 7] [nM]	EC50 [4, 8] [nM]	also measured
CC(=O)N[C@H]1CSSC[C@@H](C(=O)N2CCC[C@H]2C(=O)N2CCC[C@H]2C(=O)N[C@@H](CCCCN)C(=O)N[C@@H](CC(=O)O)C(=O)NCCC(=O)N[C@@H](Cc2ccc(O)cc2)C(=O)NCC(=O)N[C@@H](CCCNC(=N)N)C(=O)N[C@@H](CCCNC(=N)N)C(=O)N[C@@H](CCCCN)C(=O)N[C@@H](CCCNC(=N)N)C(=O)N[C@@H](CCCNC(=N)N)C(=O)N[C@@H](CCC(N)=O)C(=O)N[C@@H](CCCNC(=N)N)C(=O)N[C@@H](CCCNC(=N)N)C(=O)N[C@@H](CCCNC(=N)N)C(N)=O)NC(=O)[C@H](C)NC(=O)[C@H](Cc2csc3ccccc23)NC(=O)[C@H](CCCNC(=N)N)NC(=O)[C@@H](Cc2ccc3ccccc3c2)NC(=O)[C@H](Cc2c[nH]cn2)NC(=O)[C@H](CCC(=O)O)NC1=O	158	37.8	19.8	8.43	–	–	–	–	–
CC(=O)N[C@H]1CSSC[C@@H](C(=O)N2CCC[C@H]2C(=O)N2CCC[C@H]2C(=O)N[C@@H](CCCCN)C(=O)N[C@@H](CC(=O)O)C(=O)NCCC(=O)NCC(=O)N[C@@H](CCCNC(=N)N)C(=O)N[C@@H](CCCNC(=N)N)C(=O)N[C@@H](CCCCN)C(=O)N[C@@H](CCCNC(=N)N)C(=O)N[C@@H](CCCNC(=N)N)C(=O)N[C@@H](CCC(N)=O)C(=O)N[C@@H](CCCNC(=N)N)C(=O)N[C@@H](CCCNC(=N)N)C(=O)N[C@@H](CCCNC(=N)N)C(N)=O)NC(=O)[C@H](C)NC(=O)[C@H](Cc2csc3ccccc23)NC(=O)[C@H](CCCNC(=N)N)NC(=O)[C@@H](Cc2ccc3ccccc3c2)NC(=O)[C@H](Cc2c[nH]cn2)NC(=O)[C@H](CCC(=O)O)NC1=O	89.5	93.6	33.8	4.42	–	–	–	–	–
CC(=O)N[C@H]1CSSC[C@@H](C(=O)N2CCC[C@H]2C(=O)N2CCC[C@H]2C(=O)N[C@@H](CCCCN)C(=O)N[C@@H](CC(=O)O)C(=O)NCCC(=O)N[C@@H](CCCNC(=N)N)C(=O)N[C@@H](CCCNC(=N)N)C(=O)N[C@@H](CCCNC(=N)N)C(=O)N[C@@H](CCCNC(=N)N)C(=O)N[C@@H](CCCNC(=N)N)C(=O)N[C@@H](CCC(N)=O)C(=O)N[C@@H](CCCNC(=N)N)C(=O)N[C@@H](CCCNC(=N)N)C(=O)N[C@@H](CCCNC(=N)N)C(N)=O)NC(=O)[C@H](C)NC(=O)[C@H](Cc2csc3ccccc23)NC(=O)[C@H](CCCNC(=N)N)NC(=O)[C@@H](Cc2ccc3ccccc3c2)NC(=O)[C@H](Cc2c[nH]cn2)NC(=O)[C@H](CCC(=O)O)NC1=O	328	170	52	6.14	–	–	–	–	–
CC(=O)N[C@H]1CSSC[C@@H](C(=O)N2CCC[C@H]2C(=O)N2CCC[C@H]2C(=O)N[C@@H](CCCCN)C(=O)N[C@@H](CC(=O)O)C(=O)NCCC(=O)N[C@@H](Cc2ccc(O)cc2)C(=O)NC(C)(C)C(=O)N[C@@H](CCCNC(=N)N)C(=O)N[C@@H](CCCCN)C(=O)N[C@@H](CCCCN)C(=O)N[C@@H](CCCNC(=N)N)C(=O)N[C@@H](CCCNC(=N)N)C(=O)N[C@@H](CCC(N)=O)C(=O)N[C@@H](CCCNC(=N)N)C(=O)N[C@@H](CCCNC(=N)N)C(=O)N[C@@H](CCCNC(=N)N)C(N)=O)NC(=O)[C@H](C)NC(=O)[C@H](Cc2csc3ccccc23)NC(=O)[C@H](CCCNC(=N)N)NC(=O)[C@@H](Cc2ccc3ccccc3c2)NC(=O)[C@H](Cc2c[nH]cn2)NC(=O)[C@H](CCC(=O)O)NC1=O	–	–	–	–	–	–	–	–	EC50 ([1]; cAMP, CHO-K1 cells expressing hMC5-R, read-out: EC50 hMC5-R): 582 nM; Kb ([2]; antagonist potency by Schild analysis, cAMP, CHO-K1 cells expressing hMC3-R, read-out: Kb hMC3-R): 439 nM; EC50 ([3]; cAMP, CHO-K1 cells expressing hMC1-R, read-out: EC50 hMC1-R): 67.1 nM; Kb ([4]; antagonist potency by Schild analysis, cAMP, CHO-K1 cells expressing hMC4-R, read-out: Kb hMC4-R): 46.5 nM
CC(=O)N[C@H]1CSSC[C@@H](C(=O)N2CCC[C@H]2C(=O)N2CCC[C@H]2C(=O)N[C@@H](CCCCN)C(=O)N[C@@H](CC(=O)O)C(=O)NCCC(=O)N[C@@H](Cc2ccc(O)cc2)C(=O)NCC(=O)N[C@@H](CCCNC(=N)N)C(=O)N[C@@H](CCCNC(=N)N)C(=O)N[C@@H](CCCNC(=N)N)C(=O)N[C@@H](CCCNC(=N)N)C(=O)N[C@@H](CCCNC(=N)N)C(=O)N[C@@H](CCC(N)=O)C(=O)N[C@@H](CCCNC(=N)N)C(=O)N[C@@H](CCCNC(=N)N)C(=O)N[C@@H](CCCNC(=N)N)C(N)=O)NC(=O)[C@H](C)NC(=O)[C@H](Cc2csc3ccccc23)NC(=O)[C@H](CCCNC(=N)N)NC(=O)[C@@H](Cc2ccc3ccccc3c2)NC(=O)[C@H](Cc2c[nH]cn2)NC(=O)[C@H](CCC(=O)O)NC1=O (Ac-CEH[d2Nal]R[Bta]ACPPKD[βAla]YGRRRRRQRRR-NH2; disulfide 1-8)	879	44.6	114	28.4	–	–	–	–	–
CC(=O)N[C@H]1CSSC[C@@H](C(=O)N2CCC[C@H]2C(=O)N2CCC[C@H]2C(=O)N[C@@H](CCCNC(=N)N)C(=O)N[C@@H](CC(=O)O)C(=O)NCCC(=O)N[C@@H](CCCNC(=N)N)C(=O)N[C@@H](CCCNC(=N)N)C(=O)N[C@@H](CCCNC(=N)N)C(=O)N[C@@H](CCCNC(=N)N)C(=O)N[C@@H](CCCNC(=N)N)C(=O)N[C@@H](CCCNC(=N)N)C(=O)N[C@@H](CCC(N)=O)C(=O)N[C@@H](CCCNC(=N)N)C(=O)N[C@@H](CCCNC(=N)N)C(=O)N[C@@H](CCCNC(=N)N)C(N)=O)NC(=O)[C@H](C)NC(=O)[C@H](Cc2csc3ccccc23)NC(=O)[C@H](CCCNC(=N)N)NC(=O)[C@@H](Cc2ccc3ccccc3c2)NC(=O)[C@H](Cc2c[nH]cn2)NC(=O)[C@H](CCC(=O)O)NC1=O (Ac-CEH[d2Nal]R[Bta]ACPPRD[βAla]RRRRRRQRRR-NH2; disulfide 1-8)	2360	41.7	86.1	19.4	–	–	–	–	–
CC(=O)N[C@@H](CCCNC(=N)N)C(=O)N[C@H]1CSSC[C@@H](C(N)=O)NC(=O)[C@H](Cc2c[nH]c3ccccc23)NC(=O)[C@H](CCCNC(=N)N)NC(=O)[C@@H](Cc2ccc3ccccc3c2)NC(=O)[C@H](Cc2c[nH]cn2)NC(=O)[C@@H](C)NC1=O [Ac-Arg-c(Cys-D-Ala-His-D-2-Nal-Arg-Trp-Cys)-NH2]	1110	5.72	193	1.58	–	–	–	–	–
CC(=O)N[C@@H](CCCNC(=N)N)C(=O)N[C@H]1CSSC(C)(C)[C@@H](C(N)=O)NC(=O)[C@H](Cc2c[nH]c3ccccc23)NC(=O)[C@H](CCCNC(=N)N)NC(=O)[C@@H](Cc2ccccc2)NC(=O)[C@H](Cc2c[nH]cn2)NC(=O)[C@@H](C)NC1=O [Ac-Arg-c(Cys-D-Ala-His-D-Phe-Arg-Trp-Pen)-NH2]	10000	–	48.3	–	–	–	–	–	EC50 [2]: 13.3 nM; EC50 [4]: 0.79 nM
CCCC[C@H](NC(C)=O)C(=O)N[C@H]1CC(=O)NCCCC[C@@H](C(N)=O)NC(=O)[C@H](Cc2csc3ccccc23)NC(=O)[C@H](CCCNC(=N)N)NC(=O)[C@@H](Cc2ccccc2)NC(=O)[C@H](Cc2c[nH]cn2)NC(=O)[C@@H](C)NC1=O [Ac-Nle-c(Asp-D-Ala-His-D-Phe-Arg-Bal-Lys)-NH2] (Ac-[Nle]D[dA]H[dF]R[Bta]K-NH2; lactam 2-8)	–	–	–	–	> 10000	3.22	0.931	1.65	–
CCCC[C@H](NC(C)=O)C(=O)N[C@H]1CC(=O)NCCCC[C@@H](C(N)=O)NC(=O)CCCNC(=O)[C@H](Cc2c[nH]c3ccccc23)NC(=O)[C@H](CCCNC(=N)N)NC(=O)[C@@H](Cc2ccccc2)NC(=O)[C@H](Cc2c[nH]cn2)NC1=O [Ac-Nle-c(Asp-His-D-Phe-Arg-Trp-Gaba-Lys)-NH2]	–	–	–	–	3.48	0.628	1.37	0.131	–
CCCC[C@H](NC(C)=O)C(=O)N[C@H]1CC(=O)NCCCC[C@@H](C(N)=O)NC(=O)CCNC(=O)[C@H](Cc2c[nH]c3ccccc23)NC(=O)[C@H](CCCNC(=N)N)NC(=O)[C@@H](Cc2ccccc2)NC(=O)[C@H](Cc2c[nH]cn2)NC1=O [Ac-Nle-c(Asp-His-D-Phe-Arg-Trp-β-Ala-Lys)-NH2]	–	–	–	–	2.79	0.145	0.834	0.128	–
CCCC[C@H](NC(C)=O)C(=O)N[C@H]1CSSC[C@@H](C(N)=O)NC(=O)[C@H](Cc2c[nH]c3ccccc23)NC(=O)[C@H](CCCNC(=N)N)NC(=O)[C@@H](Cc2ccccc2)NC(=O)[C@H](Cc2c[nH]cn2)NC(=O)[C@@H](CC(C)C)NC1=O [Ac-Nle-c(Cys-D-Leu-His-D-Phe-Arg-Trp-Cys)-NH2]	–	–	–	–	78.5	0.465	3.24	0.0915	–
CCCC[C@H](NC(C)=O)C(=O)N[C@H]1CSSC[C@@H](C(N)=O)NC(=O)CCCCNC(=O)[C@H](Cc2c[nH]c3ccccc23)NC(=O)[C@H](CCCNC(=N)N)NC(=O)[C@@H](Cc2ccccc2)NC(=O)[C@H](Cc2c[nH]cn2)NC1=O [Ac-Nle-c(Cys-His-D-Phe-Arg-Trp-Apn-Cys)-NH2] (Ac-[Nle]CH[dF]RW[Ava]C-NH2; disulfide 2-8)	–	–	–	–	1.73	0.199	0.76	0.0492	–
CCCC[C@H](NC(C)=O)C(=O)N[C@H]1CSSC(C)(C)[C@@H](C(N)=O)NC(=O)CCCNC(=O)[C@H](Cc2c[nH]c3ccccc23)NC(=O)[C@H](CCCNC(=N)N)NC(=O)[C@@H](Cc2ccccc2)NC(=O)[C@H](Cc2c[nH]cn2)NC1=O [Ac-Nle-c(Cys-His-D-Phe-Arg-Trp-Gaba-Pen)-NH2] (Ac-[Nle]CH[dF]RW[GABA][Pen]-NH2; disulfide 2-8)	–	–	–	–	3.9	0.24	0.28	0.028	–
CC(=O)N[C@@H](CCC1CCCCC1)C(=O)N[C@H]1CC(=O)NCCCC[C@@H](C(N)=O)NC(=O)CCCNC(=O)[C@H](Cc2c[nH]c3ccccc23)NC(=O)[C@H](CCCNC(=N)N)NC(=O)[C@@H](Cc2ccccc2)NC(=O)[C@H](Cc2c[nH]cn2)NC1=O [Ac-hCha-c(Asp-His-D-Phe-Arg-Trp-Gaba-Lys)-NH2]	–	–	–	–	415	3.32	2.27	7.24	–
